From publication PMC6108829 (Environmental Health Perspectives, 2018)
Counter-ions that a name gives are not always drawn.

Key:
[1] = in vivo; cited from earlier work
[2] = mouse, in vivo; cited from earlier work
[3] = system: human liver microsomes; test: Glucuronidation kinetics in pooled human liver microsomes (HPLC-UV); conditions: for glucuronidation compared with the other analogs: at lower, physiologically relevant substrate concentrations, small intestine and liver (Figure 3B); for Hepatic glucuronidation vmax: in vitro value scaled with 32 mg protein/g liver, BPS: uncalibrated model
Protocol: (§1) Pooled human liver microsomes ( 20mg/mL ) and pooled human intestinal microsomes ( 20mg/mL ) were from BD Biosciences. We first placed the reaction mixtures for 30 min on ice and then incubated them for 5 min at 37°C. The addition of uridine 5'-diphospho-glucuronic acid (Sigma-Aldrich) to a final concentration of 5 mM started the reaction. For the enzyme reactions, we used a temperature of 37°C; the incubation times differed, subject to the BP and microsome type regarded (Table 1). We terminated the glucuronidation reactions with the addition of 10μL perchloric acid (Merck). In the following step, we put the samples on ice for 15 min, centrifuged at 16,000×g for 10 min, and analyzed the supernatants using HPLC-UV.
(§2) We conducted the HPLC-UV analysis on an Agilent 1,100 series HPLC system (Agilent Technologies). For this, we injected 10μL of each sample onto a Poroshell 120 EC-C18 column ( 4.6×100mm , 2.7μm , Agilent Technologies) maintained at 40°C. The mobile phases were 0.1% formic acid (A) and acetonitrile (B). The elution of different BPs consisted of a linear gradient (see Table 2). We further analyzed the results with the GraphPad Prism software (version 5.04; GraphPad Software Inc.,) and selected the most suitable kinetic model (Michaelis-Menten or substrate inhibition, Equations 3 and 4), based on the curve fitting and the shape of the Eadie-Hofstee plots (see Figure S2).
(§3) Michaelis-Menten equation: (3) v=vmax[S]/Km+[S]
(§4) Substrate inhibition equation: (4) v=vmax[S]/Km+[S](1+[S]/Ksi )

[4] = as above; conditions: human, pH 7.4
Protocol: as §1, §2, §3, §4

[5] = cited from earlier work; for logPow: ref Choi and Lee 2017; for pKa: ref SPARC 2011
[6] = system: estrogen receptors; set-up: method as in Kitamura et al. 2005; Stossi et al. 2014; conditions: ref Kitamura et al. 2005; Stossi et al. 2014; cited from earlier work
[7] = system: human intestinal microsomes; test: Glucuronidation kinetics in pooled human intestinal microsomes (HPLC-UV); conditions: for Glucuronidation in enterocytes vmax - used in basic model: scaled with 4.29 mg protein/kg BW; for Glucuronidation in enterocytes Ksi: substrate-inhibition kinetics
Protocol: as §1, §2, §3, §4

[8] = as above; conditions: human, pooled human intestinal microsomes, pH 7.4
Protocol: as §1, §2, §3, §4

[9] = Margin of exposure (MOE = EC50/Cmax) back-of-the-envelope calculation; set-up: species or system human
[10] = system: estrogen receptor; set-up: method as in Kitamura et al. 2005; conditions: ref Kitamura et al. 2005, cited from earlier work; for EC50: estrogenic potency
[11] = set-up: method as in Dumont et al. 2011; conditions: third subject (oldest volunteer); ref Dumont et al. 2011; cited from earlier work
[12] = set-up: method as in Oh et al. (2018); conditions: ref Oh et al. (2018); cited from earlier work
[13] = EC50 (Kitamura et al. 2005)/highest Cmax of basic PBPK model (Table 9)

| Structure (SMILES) | AUC, mean (range), measured [1] | Cmax [1] | glucuronidation compared with the other analogs [3] | Hepatic glucuronidation vmax [3] | logPow [5] | pKa [5] | Glucuronidation in enterocytes vmax - used in basic model [7] | Glucuronidation in enterocytes Ksi [7] | Km [8] | Km [4] | EC50 [10] | also measured |
| --- | --- | --- | --- | --- | --- | --- | --- | --- | --- | --- | --- | --- |
| CC(C)(c1ccc(O)cc1)c1ccc(O[C@@H]2O[C@H](C(=O)O)[C@@H](O)[C@H](O)[C@H]2O)cc1 [BPA-g, BPA glucuronide] | 6.66 (5.52–8.34) nM*h for 1.5 h | 6.48 nM | – | – | – | – | – | – | – | – | – | – |
| CC(C)(c1ccc(O)cc1)c1ccc(OS(=O)(=O)O)cc1 [BPA-s, BPA sulfate] | 3.61 (2.60–4.52) nM*h for 1.5 h | 4.22 nM | – | – | – | – | – | – | – | – | – | share of metabolites present in plasma [2]: 0.5–4.8% |
| Oc1ccc(C(c2ccc(O)cc2)(C(F)(F)F)C(F)(F)F)cc1 [BPAF, bisphenol AF] | – | – | most effective | 5,660 nmol/h/g liver | 2.8 to 4.8 | ~9.2 | 107 nmol/h/g bw | 82,200 nM | 1.83 µM | – | – | Hepatic glucuronidation Ksi ([3]; substrate-inhibition kinetics): 219,000 nM; Km ([4]; pooled human liver microsomes): 4.21 µM; estrogenic potency, times higher than the potency of BPA [6]: 7 to 13 times; MOE in serum of females of childbearing age ([9]; 2D-MC analysis, P95/P95): 1,860; MOE in gonads [9, 13]: 1,810; estrogenic potency, times higher than BPA ([10]; from EC50 values): 13 times |
| Oc1ccc(Cc2ccc(O)cc2)cc1 [BPF, bisphenol F] | – | – | – | 3,600 nmol/h/g liver | – | ~7.6 | 462 nmol/h/g bw | 605,000 nM | 57 µM | 17.9 µM | 1000 nM | – |
| O=S(=O)(O)Oc1ccc(Cc2ccc(O)cc2)cc1 [BPF-s] | – | – | – | – | – | – | – | – | – | – | – | share as major metabolite [11]: 75% |
| O=S(=O)(c1ccc(O)cc1)c1ccc(O)cc1 [BPS, bisphenol S] | – | – | least effective | 26,500 nmol/h/g liver | 1.7–2.1 | ~8.2 | 563 nmol/h/g bw | 711,000 nM | 354 µM | 285 µM | 1100 nM | half-life, times longer than the half-life of BPA [12]: 2.7 times; MOE in serum [9, 13]: 2,440 |
